Measured values as given in patent US20090155245A1, “Treatment for Organ Regeneration with Combination of Drug and Biologics” (priority 2007, published 2009).
Entries after “also recorded” stand apart in the source; their conditions may differ.

Experiments:
[1] = system: 5/6 nephrectomy rats; experiment: 5/6 nephrectomy (Nx) rat study of chronic renal failure; type: in vivo, rat (inbred Lewis); details: 5/6 Nx rats, rhGDF-5 50 μg/kg ip 3 times per week
Method: Both sham and 5/6 Nx performed rats were treated 4 weeks post surgery with different reagents as indicated. The effects of the treatment were analyzed every two weeks through blood and urine sample analysis consisting of hematology, serum and urine chemistry and proteinuria. After 10 weeks of treatment, kidney samples were taken from the right kidney and evaluated using histopathology for glomerulorsclerosis, interstitial fibrosis and tubular degemation. All the data were converted to a weighted ranking system from 1 to 10 and averaged for the 10 weeks. A better efficacy from a treatment receives a higher score and the maximum score is the level for sham group. […]
rhGDF-5 was administrated 3 times per week at 50 μg/kg by ip. […] Effects of these treatments on kidney function was evaluated every two weeks by monitoring clinical observations, body weights, urine volume and duration of collection, and clinical pathology parameters through blood and urine sample analysis (hematology, serum chemistry, and urine chemistry). Residual urine samples were also evaluated for protein levels, beginning on Day 28, by AniLytics, Inc. On Day 70, surviving animals were euthanized and subjected to a limited necropsy, consisting of collection of the right kidney (2 sham groups) or the remaining third of the right kidney (all the Nx groups). […]

[2] = system: UUO induced renal injury; experiment: Unilateral Ureter Obstruction (UUO) model, H&E histology renal injury scoring; type: in vivo, mice (C57BL/6); details: UUO mice, 12 days of treatment, vs vehicle; rhGDF-5 300 μg/kg ip 3x/week, SD282 60 mg/kg gavage twice daily
Excerpt: The theraputic effects of rhGDF-5 was further tested along with SD282 in Unilateral Ureter Obstruction Model (UUO) in the present invention. Mice were subjected to unilateral ureter obstruction and treatment started on the same day as the UUO surgery. After 12 days of treatment, the obstructed kidneys were harvested for Hematoxylin and Eosin (H&E) staining and RT-PCR analysis. […] CCL2 induces recruitment of monocytes, T lymphocytes, eosinophils, and basophils and is responsible for many inflammatory reactions to disease, and has been linked to recruitment of osteoclast precursors. PDGF plays a role in embryonic development, cell proliferation, cell migration, and angiogenesis. […] The efficacy of rhGDF-5 was further tested along with SD282 in a mouse UUO model. Treatment started on the same day of the UUO, and included rhGDF-5 and SD282. At the end of the 12-day treatment, histology scoring and gene expression analysis was preformed on endpoint measurements. Unilateral Ureter Obstruction Model (“UUO”) was used because it is a commonly used mouse model for progressive tubulointerstitial fibrosis in the kidney. Male C57BL/6 mice were purchased at age 6 to 8 weeks from Jackson Labs (Bar Harbor, Me.). They were housed in an animal facility that was maintained at 25° C. with a 12-hour light-dark cycle. […]

[3] = system: chemokine ligand 2 (CCL2) gene expression; experiment: UUO model, RT-PCR gene expression analysis of obstructed kidney (CCL2); type: in vivo, mice (C57BL/6); details: UUO mice, 12 days of treatment, vs controls
Excerpt: (§1) The theraputic effects of rhGDF-5 was further tested along with SD282 in Unilateral Ureter Obstruction Model (UUO) in the present invention. Mice were subjected to unilateral ureter obstruction and treatment started on the same day as the UUO surgery. After 12 days of treatment, the obstructed kidneys were harvested for Hematoxylin and Eosin (H&E) staining and RT-PCR analysis. […] CCL2 induces recruitment of monocytes, T lymphocytes, eosinophils, and basophils and is responsible for many inflammatory reactions to disease, and has been linked to recruitment of osteoclast precursors. PDGF plays a role in embryonic development, cell proliferation, cell migration, and angiogenesis.
(§2) The efficacy of rhGDF-5 was further tested along with SD282 in a mouse UUO model. Treatment started on the same day of the UUO, and included rhGDF-5 and SD282. At the end of the 12-day treatment, histology scoring and gene expression analysis was preformed on endpoint measurements.
(§3) Experimental animals were treated with rhGDF-5, 3 times per week, via ip injection at 300 μg/kg and SD282, twice, daily through gavage at 60 mg/kg dissolved in 0.5% methylcellulose. Control mice received an equal volume of 0.5% methylcellulose vehicle. Treatment dose was selected based on a review of the literature and represented the highest dose that was free of side effects in other experimental studies. […]

[4] = system: platelet-derived growth factor (PDGF) gene expression; experiment: UUO model, RT-PCR gene expression analysis of obstructed kidney (PDGF); type: in vivo, mice (C57BL/6); details: UUO mice, 12 days of treatment, vs controls
Excerpt: as §1, §2, §3

[5] = system: diabetic rats; experiment: Streptozotocin-induced diabetic nephropathy rat model; type: in vivo; details: rhGDF-5 300 μg/kg ip 3x per week
Method: The efficacy of the combination therapy was tested in a diabetic nephropathy rat model.
Diabetic condition in the animals was induced for 1 week by a single i.v. injection of Streptozotocin. Subsequently, the animals were treated for 14 weeks with or without 300 μg/kg rhGDF-5 (i.p., 3× per week), 10 mg/kg of Enalapril (gavage, once daily), or a combination of the two.
Blood glucose measurements and subcutaneous insulin administrations (as necessary) were carried out thrice weekly to maintain a glucose level between 280 and 400 mg/dL. Urine samples were collected every two weeks; blood samples collected every four weeks for measuring level of urine microalbumin, serum creatinine, blood urea nitrogen, and urine creatinine. On week fourteen, a final set of samples was collected; then the animals were euthanized and subjected to a limited necropsy involving the collection of the kidneys. One kidney from each animal was flash frozen for gene expression analysis as needed and the other preserved in 10% neutral buffered formalin, after which it was examined microscopically.
Histological examination was performed on the kidneys. […] Slides were evaluated on the basis of morphologic changes according to the following grading scheme: 0=within normal limits; 1=minimal; 2=mild; 3=moderate. All microscopic slides were evaluated and gross and microscopic findings were reported.

## rhGDF-5: recombinant human Growth and Differentiation factor-5, a protein belonging to the TGF-β superfamily (morphogen)
[1]
  blood urea nitrogen levels: some effect on reducing blood urea nitrogen levels
[2]
  renal injury score (histology scoring, H&E): reduced renal structural damage; also recorded: reduced renal injury score
[3]
  CCL2 gene expression: decreased expression of CCL2; also recorded: prevents chemokine ligand 2 (CCL2)
[4]
  PDGF gene expression: decreased expression; also recorded: prevents
[5]
  urine microalbumin / protein level in urine: comparable efficacy on reducing urine micro albumine level; also recorded: comparable effect on reducing protein level in urine
